What was measured:
[1] = molecular target: Mitogen-activated protein kinase 8 (Homo sapiens, UniProt P45983); assay: Homogeneous Time-resolved Fluorescence Assay
Method: (§1) Biochemical IC50s for JNK were determined using HTRF. In each assay the phosphor-Thr71-ATF-2 product was detected using a Europium-cryptate labeled anti-phospho-Thr71-ATF-2 antibody. Streptavidin-allophycocyanin-XL was used as the acceptor. A 10-point dose-response curve for each compound was generated in duplicate and data was fit to a four parameter logistic.

[2] = molecular target: Isoform Alpha-1 of Mitogen-activated protein kinase 10 (Alpha-1) 9-402] (Homo sapiens, UniProt P53779); assay: Homogeneous Time-resolved Fluorescence Assay; details: pH 7; 22 °C
Chain of Isoform Alpha-1 of Mitogen-activated protein kinase 10 (Alpha-1) 9-402] (P53779 39-402): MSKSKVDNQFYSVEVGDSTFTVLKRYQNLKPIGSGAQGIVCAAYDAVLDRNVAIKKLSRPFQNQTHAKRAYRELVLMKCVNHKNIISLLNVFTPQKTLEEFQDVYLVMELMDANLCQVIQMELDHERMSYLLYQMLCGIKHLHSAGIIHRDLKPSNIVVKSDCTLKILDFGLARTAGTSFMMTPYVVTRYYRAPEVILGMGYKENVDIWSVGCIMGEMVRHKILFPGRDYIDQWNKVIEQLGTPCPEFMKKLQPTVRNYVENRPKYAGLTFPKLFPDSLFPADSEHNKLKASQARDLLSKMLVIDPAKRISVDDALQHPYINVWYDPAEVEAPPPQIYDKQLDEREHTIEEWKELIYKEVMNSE
Method: as §1

Chain of Mitogen-activated protein kinase 8 (P45983 whole entry, canonical isoform): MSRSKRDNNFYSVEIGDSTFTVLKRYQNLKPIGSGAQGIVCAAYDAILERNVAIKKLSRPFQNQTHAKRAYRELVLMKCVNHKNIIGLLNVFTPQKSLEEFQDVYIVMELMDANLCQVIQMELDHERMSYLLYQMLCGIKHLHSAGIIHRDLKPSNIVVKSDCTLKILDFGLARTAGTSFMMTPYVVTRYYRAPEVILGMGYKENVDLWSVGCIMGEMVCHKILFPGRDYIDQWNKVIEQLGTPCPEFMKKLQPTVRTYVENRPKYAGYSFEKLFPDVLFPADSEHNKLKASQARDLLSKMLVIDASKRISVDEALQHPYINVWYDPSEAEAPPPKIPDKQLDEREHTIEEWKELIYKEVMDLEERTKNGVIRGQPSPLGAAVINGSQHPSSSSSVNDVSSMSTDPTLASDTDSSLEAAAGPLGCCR

SMILES: C=CCN1CCN(c2c(Cl)cccc2NC(=O)c2ccc(Br)o2)CC1 [piperazine amide, 6a]
- IC50 [1]: 380 nM
- IC50 [2]: 1260 nM
